The record followed here is ChEMBL document CHEMBL5236624, “Synthesis, Characterization, and Application of Muscarinergic M3 Receptor Ligands Linked to Fluorescent Dyes” (J Med Chem, 2022).

In experiment [1] the target is T1, Muscarinic acetylcholine receptor M1 (Homo sapiens, UniProt P11229).
T1 sequence (P11229 whole entry): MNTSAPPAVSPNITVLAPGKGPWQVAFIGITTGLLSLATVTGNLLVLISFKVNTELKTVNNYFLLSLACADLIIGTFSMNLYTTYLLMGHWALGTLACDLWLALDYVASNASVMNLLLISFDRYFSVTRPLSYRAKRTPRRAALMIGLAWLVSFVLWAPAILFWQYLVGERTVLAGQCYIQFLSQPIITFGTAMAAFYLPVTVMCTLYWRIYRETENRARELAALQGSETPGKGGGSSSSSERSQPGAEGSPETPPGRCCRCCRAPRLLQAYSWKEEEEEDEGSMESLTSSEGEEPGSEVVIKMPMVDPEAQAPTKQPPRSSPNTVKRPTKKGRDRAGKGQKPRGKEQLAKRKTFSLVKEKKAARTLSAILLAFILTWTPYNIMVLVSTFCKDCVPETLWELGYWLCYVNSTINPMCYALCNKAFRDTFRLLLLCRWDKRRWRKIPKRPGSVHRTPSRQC
In words: Displacement of [3H]N-methylscopolamine from human muscarinic M1 receptor expressed in human HEK293T cell membranes by radioligand competition binding based analysis. Details: species or system Cell membrane. In general terms: Displacement assays read how much labelled ligand stays bound in the presence of the test substance.

In experiment [2] the target is T2, Muscarinic acetylcholine receptor M2 (Homo sapiens, UniProt P08172).
T2 sequence (P08172 whole entry): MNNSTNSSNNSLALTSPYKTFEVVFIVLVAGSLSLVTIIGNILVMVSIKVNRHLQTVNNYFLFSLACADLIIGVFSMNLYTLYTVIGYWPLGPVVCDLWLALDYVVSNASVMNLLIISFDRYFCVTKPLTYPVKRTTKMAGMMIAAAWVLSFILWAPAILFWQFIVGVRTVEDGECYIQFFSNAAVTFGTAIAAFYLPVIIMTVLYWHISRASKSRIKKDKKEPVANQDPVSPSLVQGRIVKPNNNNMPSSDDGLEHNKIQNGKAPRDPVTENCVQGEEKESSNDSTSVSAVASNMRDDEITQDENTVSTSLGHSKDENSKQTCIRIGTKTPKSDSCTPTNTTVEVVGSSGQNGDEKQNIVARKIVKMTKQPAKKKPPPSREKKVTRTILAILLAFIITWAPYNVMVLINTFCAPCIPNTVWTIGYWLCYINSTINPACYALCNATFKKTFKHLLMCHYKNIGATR
The experiment in a line: Displacement of [3H]N-methylscopolamine from human muscarinic M2 receptor expressed in human HEK293T cell membranes by radioligand competition binding based analysis. Details: species or system Cell membrane.

Experiment [3] addresses Muscarinic acetylcholine receptor M3 (Homo sapiens, UniProt P20309). In words: Displacement of [3H]N-methylscopolamine from human muscarinic M3 receptor expressed in human HEK293T cell membranes by radioligand competition binding based analysis. Details: species or system Cell membrane.
Experiment [4] has as its target T3, Muscarinic acetylcholine receptor M4 (Homo sapiens, UniProt P08173).
T3 sequence (P08173 whole entry): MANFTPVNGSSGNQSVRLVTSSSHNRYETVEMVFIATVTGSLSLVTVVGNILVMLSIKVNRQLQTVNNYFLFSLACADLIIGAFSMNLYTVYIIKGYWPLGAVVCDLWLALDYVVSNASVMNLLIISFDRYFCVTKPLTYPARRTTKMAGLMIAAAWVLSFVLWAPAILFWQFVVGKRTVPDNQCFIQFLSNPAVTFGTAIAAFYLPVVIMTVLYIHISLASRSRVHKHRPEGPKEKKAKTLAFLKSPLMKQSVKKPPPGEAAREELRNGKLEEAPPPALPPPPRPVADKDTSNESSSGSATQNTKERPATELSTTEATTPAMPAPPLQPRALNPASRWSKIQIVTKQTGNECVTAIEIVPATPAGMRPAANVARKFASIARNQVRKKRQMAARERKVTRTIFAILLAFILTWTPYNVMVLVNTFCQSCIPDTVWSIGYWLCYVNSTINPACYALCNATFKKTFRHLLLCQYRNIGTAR
The experiment in a line: Displacement of [3H]N-methylscopolamine from human muscarinic M4 receptor expressed in human HEK293T cell membranes by radioligand competition binding based analysis. Details: species or system Cell membrane.

For experiment [5], the target named is T4, Muscarinic acetylcholine receptor M5 (Homo sapiens, UniProt P08912).
T4 sequence (P08912 whole entry): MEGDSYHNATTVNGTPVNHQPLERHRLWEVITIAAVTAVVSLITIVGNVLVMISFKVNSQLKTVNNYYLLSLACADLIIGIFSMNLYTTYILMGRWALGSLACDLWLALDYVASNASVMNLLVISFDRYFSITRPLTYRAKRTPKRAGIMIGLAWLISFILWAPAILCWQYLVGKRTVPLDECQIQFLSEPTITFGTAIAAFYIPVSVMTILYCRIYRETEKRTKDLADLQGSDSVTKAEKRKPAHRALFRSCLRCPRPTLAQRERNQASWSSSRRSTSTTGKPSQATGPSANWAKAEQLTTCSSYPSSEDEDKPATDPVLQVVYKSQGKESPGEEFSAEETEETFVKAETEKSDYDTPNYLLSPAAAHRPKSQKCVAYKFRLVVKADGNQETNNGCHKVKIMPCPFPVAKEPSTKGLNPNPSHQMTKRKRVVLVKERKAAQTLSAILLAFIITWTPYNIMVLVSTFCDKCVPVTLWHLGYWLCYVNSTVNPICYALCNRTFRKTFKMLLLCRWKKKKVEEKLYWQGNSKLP
The experiment in a line: Displacement of [3H]N-methylscopolamine from human muscarinic M5 receptor expressed in human HEK293T cell membranes by radioligand competition binding based analysis. Details: species or system Cell membrane.

The species named for experiment [6] is Homo sapiens. The experiment in a line: Selectivity ratio, Ki for displacement of [3H]N-methylscopolamine from human muscarinic M4 receptor expressed in human HEK293T cell membranes to Ki for displacement of [3H]N-methylscopolamine from human muscarinic M3 receptor expressed in human HEK293T cell membranes.
Experiment [7] is filed under the species Homo sapiens. The experiment in a line: Selectivity ratio, Ki for displacement of [3H]N-methylscopolamine from human muscarinic M5 receptor expressed in human HEK293T cell membranes to Ki for displacement of [3H]N-methylscopolamine from human muscarinic M3 receptor expressed in human HEK293T cell membranes.

Chain of Muscarinic acetylcholine receptor M3 (P20309 whole entry): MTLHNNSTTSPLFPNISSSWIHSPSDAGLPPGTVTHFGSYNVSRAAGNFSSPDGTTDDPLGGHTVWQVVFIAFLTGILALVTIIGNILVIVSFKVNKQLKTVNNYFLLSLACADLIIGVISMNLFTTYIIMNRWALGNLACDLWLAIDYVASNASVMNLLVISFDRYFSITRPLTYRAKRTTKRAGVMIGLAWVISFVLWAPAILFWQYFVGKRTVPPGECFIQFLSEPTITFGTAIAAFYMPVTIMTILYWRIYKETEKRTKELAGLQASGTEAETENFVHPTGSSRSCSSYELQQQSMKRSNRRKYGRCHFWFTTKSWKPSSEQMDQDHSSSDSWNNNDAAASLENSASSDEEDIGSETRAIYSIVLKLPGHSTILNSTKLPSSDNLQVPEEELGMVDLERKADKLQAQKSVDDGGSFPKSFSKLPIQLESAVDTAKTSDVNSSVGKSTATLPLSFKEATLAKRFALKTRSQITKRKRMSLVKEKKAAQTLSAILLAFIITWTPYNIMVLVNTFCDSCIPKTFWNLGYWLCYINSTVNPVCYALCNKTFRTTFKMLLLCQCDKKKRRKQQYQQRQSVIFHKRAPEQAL

On to `O=C(Nc1ccc(F)cc1-c1ccc(F)c(Cl)c1)OC1CCNCC1`, for which the inhibition constant Ki (in general, a measure of affinity in units of concentration, obtained from inhibition or displacement) turned out to be 2.8 nM in experiment [1], 92 nM in experiment [2] and 4.3 nM in experiment [3].
As to `CN(C)c1ccc2c(-c3ccc(-c4cn(CCCCCn5cc(CCCCCCN6CCC(OC(=O)Nc7ccc(F)cc7-c7ccc(F)c(Cl)c7)CC6)nn5)nn4)cc3C(=O)[O-])c3ccc(=[N+](C)C)cc-3oc2c1`, the Ki in experiment [1] stood at 2 nM; in experiment [2] it was 9.8 nM; in experiment [3], 12 nM; in experiment [4], 3.8 nM; in experiment [5], 11 nM. The Selectivity ratio in the experiment filed under Homo sapiens [6] came to 0.32; in the experiment filed under Homo sapiens [7], 0.92.
For `C#CCCCCCCN1CCC(OC(=O)Nc2ccc(F)cc2-c2ccc(F)c(Cl)c2)CC1`, the results for the Ki in experiment [1], in experiment [2] and in experiment [3] were 0.63 nM, 7.9 nM and 1 nM, respectively.
For `C#CCCCCCN1CCC(COC(=O)Nc2ccc(F)cc2-c2ccc(F)c(Cl)c2)CC1`, in that order: 1.3 nM, 13 nM and 0.77 nM.
Consider `CN(C)c1ccc2c(-c3ccc(-c4cn(CCCCCn5cc(CCCCCN6CCC(OC(=O)Nc7ccc(F)cc7-c7ccc(F)c(Cl)c7)CC6)nn5)nn4)cc3C(=O)[O-])c3ccc(=[N+](C)C)cc-3oc2c1`, for which the Ki is 4.1 nM in experiment [1]; 26 nM in experiment [2]; 6.8 nM in experiment [3]; 3.3 nM in experiment [4]; 9.7 nM in experiment [5]. Also, the figures for the Selectivity ratio in the experiment filed under Homo sapiens [6] and in the experiment filed under Homo sapiens [7] were 0.49 and 1.4, respectively.
On to `C#CCCCCCCN1CCC(COC(=O)Nc2ccc(F)cc2-c2ccc(F)c(Cl)c2)CC1`, for which the Ki in experiment [1] is 0.64 nM; in experiment [2], 9.3 nM; in experiment [3], 0.32 nM.
Regarding `CN(C)c1ccc2c(-c3ccc(-c4cn(CCCCCn5cc(CCCCCN6CCC(COC(=O)Nc7ccc(F)cc7-c7ccc(F)c(Cl)c7)CC6)nn5)nn4)cc3C(=O)[O-])c3ccc(=[N+](C)C)cc-3oc2c1`, the Ki in experiment [1] stood at 3.8 nM; in experiment [2] it was 26 nM; in experiment [3], 3.1 nM; in experiment [4], 2.6 nM; in experiment [5] it was 12 nM. Also, the Selectivity ratio in the experiment filed under Homo sapiens [6] was determined as 0.84; in the experiment filed under Homo sapiens [7] it was 3.9.
For `CN1/C(=C/C=C/C=C/C2=[N+](CCCCCC(=O)NCCCCCCCCN3CCC(COC(=O)Nc4ccc(F)cc4-c4ccc(F)c(Cl)c4)CC3)c3ccccc3C2(C)C)C(C)(C)c2ccccc21`, the Ki was found to be 1.8 nM in experiment [1]; 1.1 nM in experiment [2]; 3.2 nM in experiment [3]; 0.56 nM in experiment [4]; 2.6 nM in experiment [5]. For the same compound, the Selectivity ratio in the experiment filed under Homo sapiens [6] came to 0.18; in the experiment filed under Homo sapiens [7], 0.81.
With `CN1/C(=C/C=C/C=C/C2=[N+](CCCCCC(=O)NCCCNCCCCCCN3CCC(COC(=O)Nc4ccc(F)cc4-c4ccc(F)c(Cl)c4)CC3)c3ccccc3C2(C)C)C(C)(C)c2ccccc21`, the Ki in experiment [1] amounted to 1.9 nM; in experiment [2], 9.9 nM; in experiment [3], 7.7 nM; in experiment [4] it was 1.7 nM; in experiment [5], 18 nM. The Selectivity ratio in the experiment listed under Homo sapiens [6] stood at 0.22; in the experiment filed under Homo sapiens [7], 2.3.
As to `NCCCCCCCCN1CCC(OC(=O)Nc2ccc(F)cc2-c2ccc(F)c(Cl)c2)CC1`, the Ki in experiment [1] came out at 0.34 nM; in experiment [2], 1.7 nM; in experiment [3] it was 0.28 nM.
On to `NCCCCCCCCN1CCC(COC(=O)Nc2ccc(F)cc2-c2ccc(F)c(Cl)c2)CC1`, for which the values for the Ki in experiment [1], in experiment [2] and in experiment [3] were 0.35 nM, 0.92 nM and 0.15 nM, respectively.
With `CN1/C(=C/C=C/C=C/C2=[N+](CCCCCC(=O)NCCCCCCCCN3CCC(OC(=O)Nc4ccc(F)cc4-c4ccc(F)c(Cl)c4)CC3)c3ccccc3C2(C)C)C(C)(C)c2ccccc21`, the Ki in experiment [1] was determined as 1 nM; in experiment [2] it was 0.62 nM; in experiment [4] it was 0.86 nM. In addition, the Selectivity ratio in the experiment filed under Homo sapiens [6] was determined as 1.4.
As for `C#CCCCCCN1CCC(OC(=O)Nc2ccc(F)cc2-c2ccc(F)c(Cl)c2)CC1`, the values for the Ki in experiment [1], in experiment [2] and in experiment [3] were 2 nM, 23 nM and 1.8 nM, respectively.
Turning to `CN1/C(=C/C=C/C=C/C2=[N+](CCCCCC(=O)NCCCCCCN3CCC(COC(=O)Nc4ccc(F)cc4-c4ccc(F)c(Cl)c4)CC3)c3ccccc3C2(C)C)C(C)(C)c2ccccc21`, the Ki in experiment [1] was determined as 2.3 nM; in experiment [2] it was 6.7 nM; in experiment [3], 6.3 nM; in experiment [4], 0.9 nM; in experiment [5], 6.9 nM. Further, the Selectivity ratio came out at 0.14 in the experiment listed under Homo sapiens [6] and 1.1 in the experiment listed under Homo sapiens [7].
`NCCCCCCN1CCC(OC(=O)Nc2ccc(F)cc2-c2ccc(F)c(Cl)c2)CC1`: the results for the Ki in experiment [1], in experiment [2] and in experiment [3] were 1.9 nM, 28 nM and 2.6 nM, respectively.
As to `CN1/C(=C/C=C/C=C/C2=[N+](CCCCCC(=O)NCCCCCCN3CCC(OC(=O)Nc4ccc(F)cc4-c4ccc(F)c(Cl)c4)CC3)c3ccccc3C2(C)C)C(C)(C)c2ccccc21`, the Ki amounted to 2.7 nM in experiment [1]; 5.9 nM in experiment [2]; 2.7 nM in experiment [3]; 5.4 nM in experiment [4]; 40 nM in experiment [5]. Moreover, the figures for the Selectivity ratio in the experiment filed under Homo sapiens [6] and in the experiment filed under Homo sapiens [7] were 2 and 15, respectively.
On to `NCCCCCCN1CCC(COC(=O)Nc2ccc(F)cc2-c2ccc(F)c(Cl)c2)CC1`, for which the results for the Ki in experiment [1], in experiment [2] and in experiment [3] were 0.43 nM, 1.4 nM and 0.081 nM, respectively.
